One data set can be described thus: Rat pharmacokinetics. Type of data set: in vivo.
The next data set can be described thus: physchem. Conditions: pH 7.4, Sol. (kinetic solubility).
In data set [1] the test system is CD86 surface expression on B cells. As to the kind of experiment: cells. Conditions: Mus musculus, B-cell, read-out: CD86 IC50.
For data set [2] the following is noted: human hepatocytes.
The conditions of data set [3]: MDCK, A to B.
For data set [4] the following is noted: rat hepatocytes.
Data set [5] has as its system collagen-induced arthritis (CIA) model in Lewis rat. Conditions: 0.05 mg/kg daily, days 10–17.

With `Cn1cc(-c2cccc(N3CCc4c(sc5c4CC(C)(C)C5)C3=O)c2CO)cc(Nc2ccncn2)c1=O` [compound 7], in the data set “Rat pharmacokinetics” (1 mg/kg i.v.), the “Rat CL (total clearance)” value is 16 mL/min/kg. Further, in “Rat pharmacokinetics” (in vivo, iv, 1 mg/kg), the clearance (commonly the rate of elimination divided by the concentration) came out at 16 mL/min/kg. The bioavailability (commonly dose-corrected exposure relative to a reference, in per cent) in the data set “Rat pharmacokinetics” (in vivo, po, 5 mg/kg, pH 3) amounted to 37%.
For the molecule `Cn1cc(-c2cccc(N3CCc4cc(C(C)(C)C)ccc4C3=O)c2CO)cc(Nc2ccncn2)c1=O` [compound 9], the kinetic solubility (usually the concentration staying in solution when a stock, usually in DMSO, is diluted into the medium) in “physchem” was less than 2 µM. Also, the IC50 (usually the concentration that inhibits the measured activity by half) in data set [1] is less than 100 nM.
As to `CN1CCN(c2ccc(Nc3cc(-c4cccc(N5CCn6c(cc7c6CCCC7)C5=O)c4CO)cn(C)c3=O)nc2)CC1` [compound 17], the “HHep (projected hepatic clearance)” value in data set [2] stood at 10. Moreover, the Perm. entry in data set [3] is “MOD (MOD: 1–10 (10^–6 cm/s))”. Further, the “RHep (projected hepatic clearance)” value in data set [4] is reported as 12.
The corresponding values for `Cn1cc(-c2cccc(N3CCn4c(cc5c4CCCC5)C3=O)c2CO)cc(Nc2ccc(N3CCN(C4COC4)CC3)cn2)c1=O` [compound 18] are less than 6, “MOD (MOD: 1–10 (10^–6 cm/s))” and less than 10.
Turning to `CN1CCN(c2ccc(Nc3cc(-c4cc(F)cc(N5CCn6c(cc7c6CCCC7)C5=O)c4CO)cn(C)c3=O)nc2)CC1` [compound 19], the “HHep (projected hepatic clearance)” value in data set [2] is less than 6.2. The Perm. entry in data set [3] is given as “MOD (MOD: 1–10 (10^–6 cm/s))”. In addition, the “RHep (projected hepatic clearance)” value in data set [4] is reported as less than 10.1.
Taken in the same sequence, the figures for `Cn1cc(-c2cc(F)cc(N3CCn4c(cc5c4CCCC5)C3=O)c2CO)cc(Nc2ccc(N3CCN(C4COC4)CC3)cn2)c1=O` [compound 20] were less than 6, “HIGH (HIGH: >10 (10^–6 cm/s))” and less than 10.
On to `C[C@@H]1C[C@H]2[C@@H]3CCC4=CC(=O)C=C[C@]4(C)[C@@]3(F)[C@@H](O)C[C@]2(C)[C@@]1(O)C(=O)CO` [dexamethasone], for which the ankle diameter result in data set [5] was “significantly (by ANOVA) reduced toward normal”.

(Values after PMC5467183 (ACS Medicinal Chemistry Letters, 2017).)
